Patent US9796719B2, “Compounds and pharmaceutical compositions thereof for the treatment of inflammatory disorders” (GALAPAGOS NV, priority 2013, dated 2017)
pIC50: −log10 of the molar value.

Target: hENPP2 (UniProtKB/SwissProt Sequence ref Q13822) (Homo sapiens (Human), UniProt Q13822)
Experiment: LPC hENPP2 assay (choline release, LPC as substrate)
Assay type: biochemical
Protocol: The principle of the assay consists in quantifying the released choline with an enzymatic method using choline oxidase and peroxidase. Choline oxydation by choline oxydase releases betaine and peroxide. The latter is quantified in presence of HRP that converts the peroxide detection agent TOOS and 4-aminoantipyrine into quinoneimine dye. The appearance of quinoneimine dye is measured spectrophotometrically at 555 nm and is proportional to the amount of choline released by ENPP2. Inhibition of ENPP2 will result in a decrease of the signal.
The reaction is terminated and choline quantified by the addition of a 25 μL of a mixture containing 0.6 U/mL of choline oxidase, 0.6 U/mL of peroxydase, 1.8 mM TOOS, 1.2 mM amino-antipyrine, 20 mM EGTA (stop-developer solution) diluted in the buffer described above. […] is read on the Envision after an incubation of 30 min at room temperature (Excitation 555 nm, excitation light=70%).

Row | Structure (SMILES) | pIC50
1 | CCc1nc2ccc(N3CCC(O)CC3)nn2c1N(C)c1nc(-c2ccc(F)cc2)cs1 [Cpd 90, 1-(2-ethyl-3-((4-(4-fluorophenyl)thiazol-2-yl)(methyl)amino)imidazo[1,2-b]pyridazin-6-yl)piperidin-4-ol] | < 6.00
2 | CCc1nc2ccc(N3CCC4(CN(C)C(=O)O4)C3)nn2c1N(C)c1nc(-c2ccc(F)cc2)c(CO)s1 (stereo not drawn) [Cpd 120, 7-(2-ethyl-3-((4-(4-fluorophenyl)-5-(hydroxymethyl)thiazol-2-yl)(methyl)amino)imidazo[1,2-b]pyridazin-6-yl)-3-methyl-1-oxa-3,7-diazaspiro[4.4] nonan-2-one] | 6.30 to 7.00
3 | CCc1nc2ccc(N3CCC(NCC(=O)OC)C3)nn2c1N(C)c1nc(-c2ccc(F)cc2)cs1 (stereo not drawn) [Cpd 135, methyl 2-(1-(2-ethyl-3-((4-(4-fluorophenyl)thiazol-2-yl)(methyl)amino)imidazo[1,2-b]pyridazin-6-yl)pyrrolidin-3-ylamino)acetate] | 6.00 to 6.30
4 | CCc1nc2ccc(N3CCC(NC(=O)C4(C)COC4)CC3)nn2c1N(C)c1nc(-c2ccc(F)cc2)cs1 [Cpd 86, N-(1-(2-ethyl-3-((4-(4-fluorophenyl)thiazol-2-yl)(methyl)amino)imidazo[1,2-b]pyridazin-6-yl)piperidin-4-yl)-3-methyloxetane-3-carboxamide] | < 6.00
5 | CCc1nc2ccc(N3CCN(S(C)(=O)=O)[C@@H](CO)C3)nn2c1N(C)c1nc(-c2ccc(F)cc2)cs1 [Cpd 69, (R)-(4-(2-ethyl-3-((4-(4-fluorophenyl)thiazol-2-yl)(methyl)amino)imidazo[1,2-b]pyridazin-6-yl)-1-(methylsulfonyl)piperazin-2-yl)methanol] | < 6.00
6 | CCc1nc2ccc(N3CC[C@H](NCC(=O)N4CC(O)C4)C3)nn2c1N(C)c1nc(-c2ccc(F)cc2)c(C#N)s1 [Cpd 174, (S)-2-((2-ethyl-6-(3-(2-(3-hydroxyazetidin-1-yl)-2-oxoethylamino)pyrrolidin-1-yl)imidazo[1,2-b]pyridazin-3-yl)(methyl)amino)-4-(4-fluorophenyl) thiazole-5-carbonitrile] | 7.00 to 11.00
7 | CCc1nc2ccc(N3CCN(CC4CNC(=O)O4)CC3)nn2c1N(C)c1nc(-c2ccc(F)cc2)c(C#N)s1 (stereo not drawn) [Cpd 160, 2-((2-ethyl-6-(4-((2-oxooxazolidin-5-yl)methyl)piperazin-1-yl)imidazo[1,2-b]pyridazin-3-yl)(methyl)amino)-4-(4-fluorophenyl) thiazole-5-carbonitrile] | 7.00 to 11.00
8 | CCc1nc2ccc(N3CCC(N4CCNC(=O)C4)C3)nn2c1N(C)c1nc(-c2ccc(F)cc2)cs1 (stereo not drawn) [Cpd 146, 4-(1-(2-ethyl-3-((4-(4-fluorophenyl)thiazol-2-yl)(methyl)amino)imidazo[1,2-b]pyridazin-6-yl)pyrrolidin-3-yl)piperazin-2-one] | 6.00 to 6.30
9 | CCc1nc2ccc(N3CC(NCC(=O)N4CC(O)C4)C3)nn2c1N(C)c1nc(-c2ccc(F)cc2)cs1 [Cpd 155, 2-(1-(2-ethyl-3-((4-(4-fluorophenyl)thiazol-2-yl)(methyl)amino)imidazo[1,2-b]pyridazin-6-yl)azetidin-3-ylamino)-1-(3-hydroxyazetidin-1-yl)ethanone] | 6.30 to 7.00
10 | CCc1nc2cnc(N3CCN(CC(=O)N4CCC4)CC3)cn2c1N(C)c1nc(-c2ccc(F)cc2)cs1 [Cpd 13, 1-(azetidin-1-yl)-2-(4-(2-ethyl-3-((4-(4-fluorophenyl)thiazol-2-yl)(methyl)amino)imidazo[1,2-a]pyrazin-6-yl)piperazin-1-yl)ethanone] | < 6.00
11 | CCc1nc2ccc(N3CCCC4(CNC(=O)O4)C3)nn2c1N(C)c1nc(-c2ccc(F)cc2)c(C#N)s1 (stereo not drawn) [Cpd 162, 2-((2-ethyl-6-(2-oxo-1-oxa-3,7-diazaspiro[4.5]decan-7-yl)imidazo [1,2-b]pyridazin-3-yl)(methyl)amino)-4-(4-fluorophenyl) thiazole-5-carbonitrile] | 6.30 to 7.00

Other lines, results leading:

Row | pIC50 | Structure (SMILES)
12 | 7.00 to 11.00 | CCc1nc2ccc(N3CC(NS(C)(=O)=O)C3)nn2c1N(C)c1nc(-c2ccc(F)cc2)c(C#N)s1 [Cpd 190, N-(1-(3-((5-cyano-4-(4-fluorophenyl)thiazol-2-yl)(methyl)amino)-2-ethylimidazo[1,2-b]pyridazin-6-yl)azetidin-3-yl)methane-sulfonamide]
13 | 6.30 to 7.00 | CCc1nc2ccc(C3CCN(CC(=O)N4CC(O)C4)CC3)nn2c1N(C)c1nc(-c2ccc(F)cc2C#N)ns1 [Cpd 220, 2-(5-((2-ethyl-6-(1-(2-(3-hydroxyazetidin-1-yl)-2-oxoethyl)piperidin-4-yl)imidazo[1,2-b]pyridazin-3-yl)(methyl)amino)-1,2,4-thiadiazol-3-yl)-5-fluorobenzonitrile]
14 | 7.00 to 11.00 | CCc1nc2ccc(N3CCC(N4CCC(O)CC4)C3)nn2c1N(C)c1nc(-c2ccc(F)cc2)c(C#N)s1 (stereo not drawn) [Cpd 182, 2-((2-ethyl-6-(3-(4-hydroxypiperidin-1-yl)pyrrolidin-1-yl)imidazo[1,2-b]pyridazin-3-yl)(methyl)amino)-4-(4-fluorophenyl) thiazole-5-carbonitrile]
15 | 6.30 to 7.00 | CCc1nc2ccc(N3CC(NC(=O)OC(C)(C)C)C3)nn2c1N(C)c1nc(-c2ccc(F)cc2)c(C#N)s1 [Cpd 187, [1-(3-{[5-Cyano-4-(4-fluoro-phenyl)-thiazol-2-yl]-methyl-amino}-2-ethyl-imidazo[1,2-b]pyridazin-6-yl)-azetidin-3-yl]-carbamic acid tert-butyl ester]
16 | 7.00 to 11.00 | CCc1nc2ccc(N3CC[C@H](NCC(=O)N(C)C)C3)nn2c1N(C)c1nc(-c2ccc(F)cc2)c(C#N)s1 [Cpd 175, (S)-2-(1-(3-((5-cyano-4-(4-fluorophenyl)thiazol-2-yl)(methyl)amino)-2-ethylimidazo[1,2-b]pyridazin-6-yl)pyrrolidin-3-ylamino)-N,N-dimethylacetamide]
17 | 6.30 to 7.00 | CCc1nc2ccc(N3CCC4(CCOCC4)C3)nn2c1N(C)c1nc(-c2ccc(F)cc2)c(CO)s1 [Cpd 186, (2-((2-ethyl-6-(8-oxa-2-azaspiro[4.5]decan-2-yl)[1,2-b]pyridazin-3-yl)(methyl)amino)-4-(4-fluorophenyl)thiazol-5-yl)methanol]
18 | 7.00 to 11.00 | CCc1nc2ccc(N3CC(N)C3)nn2c1N(C)c1nc(-c2ccc(F)cc2)c(C#N)s1 [Cpd 188, 2-((6-(3-aminoazetidin-1-yl)-2-ethylimidazo[1,2-b]pyridazin-3-yl)(methyl)amino)-4-(4-fluorophenyl) thiazole-5-carbonitrile]
19 | 7.00 to 11.00 | CCc1nc2ccc(N3CCC(N4CCC(OC)CC4)C3)nn2c1N(C)c1nc(-c2ccc(F)cc2)c(C#N)s1 (stereo not drawn) [Cpd 183, 2-((2-ethyl-6-(3-(4-methoxypiperidin-1-yl)pyrrolidin-1-yl)imidazo[1,2-b]pyridazin-3-yl)(methyl)amino)-4-(4-fluorophenyl) thiazole-5-carbonitrilc]
20 | 6.30 to 7.00 | CCc1nc2ccc(C3CCN(CC(=O)N(C)C)CC3)nn2c1N(C)c1nc(-c2ccc(F)cc2C#N)cs1 [Cpd 208, 2-(4-(3-((4-(2-cyano-4-fluorophenyl)thiazol-2-yl)(methyl)amino)-2-ethylimidazo[1,2-b]pyridazin-6-yl)piperidin-1-yl)-N,N-dimethylacetamide]
21 | < 6.00 | CCc1nc2ccc(C3CCN(CC(=O)N4CC(O)C4)CC3)nn2c1N(C)c1nc(-c2ccc(F)cc2C#N)c(C)s1 [Cpd 210, 2-(2-((2-ethyl-6-(1-(2-(3-hydroxyazetidin-1-yl)-2-oxoethyl)piperidin-4-yl)imidazo[1,2-b]pyridazin-3-yl)(methyl)amino)-5-methylthiazol-4-yl)-5-fluorobenzonitrile]
